Reference: PMC10302187, “WssI from the Gram-negative bacterial cellulose synthase is an O-acetyltransferase that acts on cello-oligomers with several acetyl donor substrates” (The Journal of Biological Chemistry, 2023)

How the values were obtained:
AiWssI^ΔN [1] = biological target: T1, AiWssI^ΔN (Achromobacter insuavis, UniProt A0A6J5I893); type: biochemical; details: 1 h incubation with reagent (1 mM PMSF, 5 mM MSF, 5 mM EDTA, 0.1 mM E-64, 20 μM Pepstatin A); 6 mM pNP-Ac, pH 7
Procedure: (§1) The enzymatic rate of the WssI^ΔN proteins was measured using chromogenic assays in a 50 mM sodium phosphate-buffered (pH 7) solution, with WssI^ΔN (3 μM unless specified otherwise) and were initiated by the addition of pNP-Ac to a final concentration of 6 mM (dissolved in 5% [v/v] ethanol). Assay samples and corresponding controls (i.e., containing no WssI^ΔN and/or substrate) were run in quadruplicate, and the progress of the reaction was monitored at 405 nm (Cytation5) for 30 min in 1 min intervals following a 5 s initial linear shake to mix contents thoroughly. These conditions were deemed standard assay conditions for subsequent trials except where modifications are noted. The activity assay to determine optimal pH and buffer type was performed with 2-(N-morpholino)ethanesulfonic acid over pH ranges of 5.5 to 6.5, sodium phosphate for pH 6.5 to 7.5, and Tris for the final range of 7.5 to 9.25. In addition, standard assay conditions were modified by incorporating various inhibitors and common reducing agents to determine effects on WssI^ΔN activity. […] To test the effects of the absence of DTT, trials were conducted where DTT was removed from all purification and dialysis buffers, unless mentioned otherwise. Data are either reported in specific activity as units of esterase activity (i.e., the amount of enzyme required to release 1 μmol of p-nitrophenol per min^−1 per mg of protein^−1) or as percent residual activity when compared with the WssI^ΔN controls (i.e., containing no inhibitors).

PfWssI^ΔN = biological target: T2, PfWssI^ΔN (Pseudomonas fluorescens, UniProt Q8RSY4); type: biochemical; details: 1 h incubation with reagent (1 mM PMSF, 5 mM MSF, 5 mM EDTA, 0.1 mM E-64, 20 μM Pepstatin A); 6 mM pNP-Ac, pH 7
T2 sequence (Q8RSY4 92-374): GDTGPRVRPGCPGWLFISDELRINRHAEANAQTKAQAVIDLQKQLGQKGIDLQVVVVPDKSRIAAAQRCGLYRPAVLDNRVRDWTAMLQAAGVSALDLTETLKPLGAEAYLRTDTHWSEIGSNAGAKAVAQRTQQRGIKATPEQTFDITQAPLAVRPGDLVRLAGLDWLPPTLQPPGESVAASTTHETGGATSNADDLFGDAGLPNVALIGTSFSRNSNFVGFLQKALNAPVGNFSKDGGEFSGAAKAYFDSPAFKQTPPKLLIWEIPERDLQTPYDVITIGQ
Procedure: as §1

AiWssI^ΔN [2] = biological target: T1, AiWssI^ΔN; test: HTS MU-Ac fluorescence esterase dose-response assay; type: biochemical; details: MU-Ac as esterase substrate
Procedure: Large-scale HTS was conducted at the SPARC BioCentre Drug Discovery (Hospital for Sick Children, Toronto, Canada) with a subset of the Chembridge DIVERset library collection (as well as 135 manually selected compounds based on success against other SGNH enzymes) in a 384-well format. The assay was performed in singlet during the primary screen of the entire compound list and in triplicate for a follow-up confirmatory screen. Reaction setups for both screens were conducted with 50 mM sodium phosphate buffer (pH 6.5), 3 μM AiWssI^ΔN and 0.5 mM MU-Ac (final concentration of 5% [v/v] dimethyl sulfoxide) using a Thermo MultiDrop Combi Reagent Dispenser. The reaction was initiated by the addition of 20 μM of the test compounds using an Echo 550 acoustic dispenser (Labcyte). Fluorescence was monitored with a SynergyNeo microplate reader (BioTek) using excitation and emission wavelengths of 365 and 450 nm, respectively, for approximately 45 min alongside appropriate negative and positive controls. […] The hits remaining after the primary and confirmatory screening were examined further to identify possible PAINS, which could result in false-positive results ([91]). Further refinement of the lead candidates was also conducted by assessing the fluorescence quenching potential of lead compound hits by assaying the quenching potential of different compound concentrations (10.1 μM and/or 50.5 μM) against the fluorescence of 4-methylumbeliferone (247 μM) to reveal any potential false positives that were not actually because of AiWssI^ΔN activity. All fluorescence readings were normalized using the following equation to determine the percentage of quenching ([92]): NormalizedFlouresence=Fobs−μFmin/μFmax−μFminx100% In the aforementioned formula, Fobs is the sample fluorescence value, μFmin is the mean fluorescence value of the negative controls, and μFmax is the mean fluorescence value of the positive controls.
(§2) All inhibitor compounds for confirmatory assays were purchased from Enamine Ltd, with the exception of compound 1 (Santa Cruz Biotechnology, Inc), Compounds 2 and 7 (Molport via Maybridge Ltd and Vitas M Chemical Ltd, respectively) and compound 6 (Mcule, Inc). The dose–response curves were generated using either CDD Vault Analysis Software (Collaborative Drug Discovery, Inc) or GraphPad Prism, version 8.4.3. Inhibition constants (Ki) were calculated using the Cheng–Prusoff equation for competitive inhibition that is calculated using the KM of the uninhibited enzyme, the substrate concentration (S) at which the IC50 values were calculated, and the IC50 value of the inhibitor ([92]): Ki=IC50/(S/KM+1)

AiWssI^ΔN [3] = biological target: T1, AiWssI^ΔN; test: Follow-up standard MU-Ac esterase assay (dose-response); type: biochemical
Procedure: The fluorescence substrate, MU-Ac, was also tested as a substrate of WssI^ΔN for its amenability to the planned high-throughput analyses (see later). Reaction setups were exactly the same as that for pNP-Ac, with the exceptions of the assay buffer (50 mM sodium phosphate, 150 mM NaCl, 1 mM DTT, pH 7), MU-Ac as the acetyl donor (final concentration of 0.5 mM along with 5% [v/v] dimethyl sulfoxide, as this was the solvent for MU-Ac), and the assay was performed in fluorescence compatible microplates (Grenier BioOne) and monitored with excitation and emission wavelengths of 365 and 450 nm, respectively for 60 min.
as §2

[4] = biological target: serine/threonine phosphatase calcineurin; parameters: method as in PMID 9763224; details: p-nitrophenyl phosphate as a substrate; cited from earlier work

T1 sequence (A0A6J5I893 entry or part of it, stated change not applied): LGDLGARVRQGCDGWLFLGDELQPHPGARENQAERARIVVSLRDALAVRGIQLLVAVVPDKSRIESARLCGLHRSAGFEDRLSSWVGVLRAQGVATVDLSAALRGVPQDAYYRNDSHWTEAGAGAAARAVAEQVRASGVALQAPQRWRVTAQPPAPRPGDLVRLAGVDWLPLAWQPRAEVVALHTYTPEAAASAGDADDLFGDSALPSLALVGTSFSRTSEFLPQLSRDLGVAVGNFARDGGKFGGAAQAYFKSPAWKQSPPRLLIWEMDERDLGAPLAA

## CS(=O)(=O)F [MSF, methanesulfonyl fluoride]
AiWssI^ΔN [1]
  Residual activity AiWssI^ΔN: 95.0 ± 6.2%
PfWssI^ΔN
  Residual activity PfWssI^ΔN: 112.1 ± 4.4%

## N#CC(C#N)=C(N)/C(C#N)=C/c1ccc(O)cc1 [Compound 1, (3Z)-2-Amino-3-[(4-hydroxyphenyl)-methylidene]prop-1-ene-1,1,3-tricarbonitrile]
AiWssI^ΔN [2]
  IC50: 10.1 µM
AiWssI^ΔN [3]; MU-Ac (0.5 mM) as esterase substrate, read-out: Second MU-Ac IC50
  IC50: 28.4 µM
AiWssI^ΔN [3]; MU-Ac as esterase substrate, Cheng-Prusoff, competitive inhibition, read-out: Second MU-Ac Ki
  Ki: 15.1 µM
[4]
  IC50: 30 µM

## CC(C)C[C@H](NC(=O)[C@H]1O[C@@H]1C(=O)O)C(=O)NCCCCN=C(N)N [E-64]
AiWssI^ΔN [1]
  Residual activity AiWssI^ΔN: 130.8 ± 9.1%
PfWssI^ΔN
  Residual activity PfWssI^ΔN: 107.8 ± 10.8%
